According to patent publication US11702422B2, “Imidazopyridazines as modulators of IL-17” (Janssen Pharmaceutica NV, priority 2020, dated 2023):
pIC50: −log10 of the molar value.

Key:
[1] = target: IL-17A(FLAG-Tagged): IL-17RA(His-Tagged) (Homo sapiens, UniProt Q16552, K93Q); experiment: IL-17A(FLAG-Tagged): IL-17RA(His-Tagged) Binding Disruption Eu-HTRF Assay; details: IL-17A/IL-17RA binding disruption, simple average if tested more than once
How it was run: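 IC50 comes from a one-site competition fit of the HTRF 665/620 nm ratio. Compound dilutions (2-fold, 22 points) were held 1 h rt with FLAG-tagged IL-17A dimer, then His-tagged IL-17RA plus Eu-cryptate anti-FLAG and D2 anti-His antibodies were added for 2 h rt.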

[2] = test system: IL-17A-induced G-CSF production in human normal keratinocyte (NHK); experiment: NHK Assay: IL-17A-induced G-CSF production in human normal keratinocytes; format: cell-based; details: 24 h, adult normal human keratinocytes, IL-17A 5 ng/mL, simple average if tested more than once
How it was run: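 Compound is first combined with recombinant human IL-17A for 1 h at rt, and the mix is added to adult normal human keratinocytes so that IL-17A is 5 ng/mL. After 24 h at 37° C in 5% FBS, G-CSF released into the medium is read by HTRF and IC50 derived.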

Chain of UniProt Q16552 (Q16552 with tags, fused parts or gaps K93Q): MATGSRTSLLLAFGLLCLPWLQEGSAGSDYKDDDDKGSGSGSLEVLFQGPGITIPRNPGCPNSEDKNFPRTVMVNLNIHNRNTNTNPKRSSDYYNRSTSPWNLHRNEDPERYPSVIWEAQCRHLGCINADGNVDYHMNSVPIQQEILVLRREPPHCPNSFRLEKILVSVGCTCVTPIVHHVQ

pIC50 [1] | Structure (SMILES) | pIC50 ([2]; Homo sapiens, Keratinocyte) | pIC50 [2]
6.57 | Cc1nonc1C(=O)N[C@H](c1cn2ncc([C@H](NC(=O)CC(C)CC(F)(F)F)C3CC3)cc2n1)C1CCC(F)(F)CC1 (single isomer, unassigned) [Example 350, N—((S)-(7-((R)-Cyclopropyl((R*)-5,5,5-trifluoro-3-methylpentanamido)methyl)imidazo[1,2-b]pyridazin-2-yl)(4,4-difluorocyclohexyl)methyl)-4-methyl-1,2,5-oxadiazole-3-carboxamide] | 6.18 | –
6.68 | O=C(CCC(F)(F)F)N[C@@H](c1cnn2cc([C@@H](NC(=O)[C@H]3C[C@@H]3C(F)F)C3CCC(F)(F)CC3)nc2c1)C1CC1 (single isomer, unassigned) [Example 361] | 5.77 | –
7.32 | CC(O)c1nonc1C(=O)N[C@H](c1cn2ncc([C@H](NC(=O)CC3CC(F)(F)C3)C3CC3)cc2n1)C1CCC(F)(F)CC1 (single isomer, unassigned) [Example 395, N—((S)-(7-((R)-Cyclopropyl(2-(3,3-difluorocyclobutyl)acetamido)methyl)imidazo[1,2-b]pyridazin-2-yl)(4,4-difluorocyclohexyl)methyl)-4-((R*)-1-hydroxyethyl)-1,2,5-oxadiazole-3-carboxamide] | 6.77 | –
6.92 | Cc1nonc1C(=O)N[C@H](c1cn2ncc(C(CC#N)NC(=O)CC3CC(F)(F)C3)cc2n1)C1CCC(F)(F)CC1 (single isomer, unassigned) [Example 397, N—((S)-(7-((S*)-2-Cyano-1-(2-(3,3-difluorocyclobutyl)acetamido)ethyl)imidazo[1,2-b]pyridazin-2-yl)(4,4-difluorocyclohexyl)methyl)-4-methyl-1,2,5-oxadiazole-3-carboxamide] | – | 6.22
6.96 | O=C(CC1CC(F)(F)C1)N[C@@H](c1cnn2cc([C@@H](NC(=O)c3nonc3C(O)C3CC3)C3CCC(F)(F)CC3)nc2c1)C1CC1 (single isomer, unassigned) [Example 402, N—((S)-(7-((R)-Cyclopropyl(2-(3,3-difluorocyclobutyl)acetamido)methyl)imidazo[1,2-b]pyridazin-2-yl)(4,4-difluorocyclohexyl)methyl)-4-((S*)-cyclopropyl(hydroxy)methyl)-1,2,5-oxadiazole-3-carboxamide] | – | 6.96
7.01 | O=C(CC1CC(F)(F)C1)NC(c1cnn2cc([C@@H](NC(=O)c3nonc3C3CC3)C3CCC(F)(F)CC3)nc2c1)C(F)(F)F (single isomer, unassigned) [Example 421, 4-Cyclopropyl-N—((S)-(7-((S*)-1-(2-(3,3-difluorocyclobutyl)acetamido)-2,2,2-trifluoroethyl)imidazo[1,2-b]pyridazin-2-yl)(4,4-difluorocyclohexyl)methyl)-1,2,5-oxadiazole-3-carboxamide] | 7.37 | –
6.59 | CC(C)n1nccc1C(=O)N[C@H](c1cn2ncc(C(NC(=O)CC3CC(F)(F)C3)C(F)(F)F)cc2n1)C1CCC(F)(F)CC1 (single isomer, unassigned) [Example 422, N—((S)-(7-((S*)-1-(2-(3,3-Difluorocyclobutyl)acetamido)-2,2,2-trifluoroethyl)imidazo[1,2-b]pyridazin-2-yl)(4,4-difluorocyclohexyl)methyl)-1-isopropyl-1H-pyrazole-5-carboxamide] | 7.09 | –
7.11 | Cc1nonc1C(=O)N[C@H](c1cn2ncc(C(NC(=O)CC3CC(F)(F)C3)C3(C#N)CC3)cc2n1)C1CCC(F)(F)CC1 (single isomer, unassigned) [Example 423, N—((S)-(7-((S*)-(1-Cyanocyclopropyl)(2-(3,3-difluorocyclobutyl)acetamido)methyl)imidazo[1,2-b]pyridazin-2-yl)(4,4-difluorocyclohexyl)methyl)-4-methyl-1,2,5-oxadiazole-3-carboxamide] | 6.89 | –
7.33 | N#CC1(C(NC(=O)CC2CC(F)(F)C2)c2cnn3cc([C@@H](NC(=O)c4nonc4C4CC4)C4CCC(F)(F)CC4)nc3c2)CC1 (single isomer, unassigned) [Example 424, N—((S)-(7-((S*)-(1-Cyanocyclopropyl)(2-(3,3-difluorocyclobutyl)acetamido)methyl)imidazo[1,2-b]pyridazin-2-yl)(4,4-difluorocyclohexyl)methyl)-4-cyclopropyl-1,2,5-oxadiazole-3-carboxamide] | – | 7.40

More lines, now with the values behind:

Structure (SMILES) | pIC50 [1] | pIC50 ([2]; Homo sapiens, Keratinocyte) | pIC50 [2]
O=C(CCC(F)(F)F)N[C@@H](c1cnn2cc([C@@H](NC(=O)[C@@H]3C[C@H]3C(F)F)C3CCC(F)(F)CC3)nc2c1)C1CC1 (single isomer, unassigned) [Example 360] | 5.57 | < 4.70 | –
CC(O)c1nonc1C(=O)N[C@H](c1cn2ncc([C@H](NC(=O)CC3CC(F)(F)C3)C3CC3)cc2n1)C1CCC(F)(F)CC1 (single isomer, unassigned) [Example 396, N—((S)-(7-((R)-Cyclopropyl(2-(3,3-difluorocyclobutyl)acetamido)methyl)imidazo[1,2-b]pyridazin-2-yl)(4,4-difluorocyclohexyl)methyl)-4-((S*)-1-hydroxyethyl)-1,2,5-oxadiazole-3-carboxamide] | 7.30 | – | 6.72
N#CCC(NC(=O)CC1CC(F)(F)C1)c1cnn2cc([C@@H](NC(=O)c3nonc3C3CC3)C3CCC(F)(F)CC3)nc2c1 (single isomer, unassigned) [Example 398, N—((S)-(7-((S*)-2-Cyano-1-(2-(3,3-difluorocyclobutyl)acetamido)ethyl)imidazo[1,2-b]pyridazin-2-yl)(4,4-difluorocyclohexyl)methyl)-4-cyclopropyl-1,2,5-oxadiazole-3-carboxamide] | 7.38 | 7.15 | –
CC(C)n1nccc1C(=O)N[C@H](c1cn2ncc(C(CC#N)NC(=O)CC3CC(F)(F)C3)cc2n1)C1CCC(F)(F)CC1 (single isomer, unassigned) [Example 399, N—((S)-(7-((S*)-2-Cyano-1-(2-(3,3-difluorocyclobutyl)acetamido)ethyl)imidazo[1,2-b]pyridazin-2-yl)(4,4-difluorocyclohexyl)methyl)-1-isopropyl-1H-pyrazole-5-carboxamide] | 6.51 | – | 7.03
O=C(CC1CC(F)(F)C1)NC(CC(F)F)c1cnn2cc([C@@H](NC(=O)c3nonc3C3CC3)C3CCC(F)(F)CC3)nc2c1 (single isomer, unassigned) [Example 400, 4-Cyclopropyl-N—((S)-(7-((R*)-1-(2-(3,3-difluorocyclobutyl)acetamido)-3,3-difluoropropyl)imidazo[1,2-b]pyridazin-2-yl)(4,4-difluorocyclohexyl)methyl)-1,2,5-oxadiazole-3-carboxamide] | 7.31 | 7.46 | –
O=C(CC1CC(F)(F)C1)N[C@@H](c1cnn2cc([C@@H](NC(=O)c3nonc3C(O)C3CC3)C3CCC(F)(F)CC3)nc2c1)C1CC1 (single isomer, unassigned) [Example 401, N—((S)-(7-((R)-Cyclopropyl(2-(3,3-difluorocyclobutyl)acetamido)methyl)imidazo[1,2-b]pyridazin-2-yl)(4,4-difluorocyclohexyl)methyl)-4-((R*)-cyclopropyl(hydroxy)methyl)-1,2,5-oxadiazole-3-carboxamide] | 6.82 | 7.24 | –
